This note sets out measurements from patent US10610517B2, “Compositions and methods for treating neoplastic diseases” (Celgene International II Sàrl, priority 2004, dated 2020).

Like-named read-outs stand apart in the source and are kept apart here.

Data set [1] has as its target T1, human erythrocyte-derived 20S proteasome (Homo sapiens, UniProt P28072+P28074+Q99436).
T1 construct: Purified human erythrocyte-derived 20S proteasome were obtained from Biomol; purchased Biomol, Plymouth Meeting, Pa; host or cells: purified from human erythrocytes
Nature of the data set: In vitro 20S proteasome activity assay. The class given is biochemical. The note with it: Suc-LLVY-AMC, Z-LLE-AMC, Boc-LRR-AMC substrates; FIG. 1. How it is done: The chymotrypsin-like activity of the 20S proteasome was measured as described in Stein, R. L., Melandri, F. & Dick, L. (1996) Biochemistry 35, 3899-908 and Lightcap, E. S., McCormack, T. A., Pien, C. […] Purified human erythrocyte-derived 20S proteasome were obtained from Biomol, Plymouth Meeting, Pa. The chymotrypsin-like, caspase-like and trypsin-like activity activities of the 20S proteasome were determined using Suc-LLVY-AMC, Z-LLE-AMC (Boston Biochem, Cambridge, Mass.) and Boc-LRR-AMC (Bachem Bioscience, King of Prussia, Pa.) as peptide substrates, respectively. Fluorescence of the cleaved peptide substrate was measured using a Fluoroskan Ascent 96-well microplate reader (Thermo Electron, Waltham, Mass.). The EC50 values were calculated by Prism (GraphPad Software) using a sigmoidal dose-response, variable slope model. The EC50 values were defined as the drug concentration at which 50% of the maximal relative fluorescence is inhibited.

The subject of data set [2] is 20S proteasome in white blood cell (WBC) lysates. Description: Ex vivo 20S proteasome activity in whole blood cells in mice. How it is done: To directly determine whether the compound of formula (II) (X=Cl) inhibits proteasome activity in vivo, the compound of formula (II) (X=Cl) was dissolved in 100% DMSO and serially diluted with 5% Solutol (Solutol® HS15; polyethylene glycol 660 12-hydroxystearate, BASF, Shreveport, La.) yielding a final concentration of 2% DMSO. The vehicle control consisted of 2% DMSO and 98% (5% Solutol® HS15). Male Swiss-Webster mice (five per group, 20-25 grams in weight) were treated at Bolder BioPATH, Inc. (Boulder, Colo.) with various concentrations of the compound either intravenously or orally at a volume of 10 mL/kg. One group of animals was untreated to establish a baseline of proteasome activity. Ninety minutes after administration of the compound, the animals were anesthetized and blood withdrawn by cardiac puncture. Packed whole blood cells were collected by centrifugation, washed with PBS, and frozen on dry ice for determination of ex vivo proteasome activity. Chymotrypsin-like activity of the 20S proteasome in white blood cell (WBC) lysates was determined using the peptide substrate suc-LLVY-AMC. Relative Fluoresence Units (RFU) were normalized using the protein concentrations of the cell lysates. The 20S proteasome activity of the individual mice is shown in FIG. 2 with the horizontal bar representing the average activity. […]

Data set [3] concerns the target proteasome β-5, β-2, β-1 subunits in MM.1S MM cells (Homo sapiens, UniProt P28072+P28074+Q99436). Nature of the data set: Competition experiment with AdaY(125I)Ahx3L3VS in MM.1S cells. The settings on record: 7 nM. The class given is cell-based. How it is done: Determination of whether the compound of formula II (X=Cl) affects the proteasome activity in multiple myeloma cells in vitro was made using a competition experiment with AdaY^125Iahx3L3VS. In this assay, sites that are not targeted by the compound of formula II (X=Cl) are labeled by AdaY(^125I)Ahx3L3VS and visualized by autoradiography, while sites that are targeted by the compound of formula II (X=Cl) can not be seen on the autoradiogram. […] 60 μg of protein extracts was incubated for 2 h with the iodinated proteasome inhibitor AdaY^125Iahx3L3VS at 37° C. Proteins were then denatured by boiling in reducing sample buffer and separated on a 12.5% SDS-PAGE gel, followed by autoradiography.

A further data set relates to MM.1S MM cells. Description: VEGF-induced migration of MM cells. The note with it: 7 or 10 nM; FIG. 8. The class given is cell-based, human. How it is done: VEGF is elevated in the bone marrow microenvironment and triggers migration, growth, and angiogenesis in MM cells. See Podar, K., Tai, Y. T., Lin, B. K., Narsimhan, R. P., Sattler, M., Kijima, T., Salgia, R., Gupta, D., Chauhan, D. & Anderson, K. C. […] Thus, whether the compound of formula (II) (X=Cl) alters VEGF-induced migration of MM cells was evaluated. VEGF induced migration was examined in the presence or absence of the compound (7 or 10 nM). Cell migration was assayed as described previously in Podar, K., Tai, Y. T., Davies, F. E., Lentzsch, S., Sattler, M., Hideshima, T., Lin, B. K., Gupta, D., Shima, Y., Chauhan, D., Mitsiades, C., Raje, N., Richardson, P. & Anderson, K. C. […] These findings indicate that the compound may negatively regulate both homing of MM cells to the bone marrow and their egress into the peripheral blood.

The subject of the next data set is RPMI 8226 MM cells. The class given is in vivo, beige-nude-xid (BNX) mice.
A further data set has as its system Bax. Description: Immunoblot of Bax in mitochondrial protein extracts. Type of data set: cell-based, human. The note with it: MM.1S cells; FIG. 12E. How it is done:
Immunoblot analysis was performed using antibodies to cytochrome-c, Smac, Caspase-8, -9, or -3 (Cell Signaling, Beverly, Mass.), tubulin (Sigma, St. Louis, Mo.), PARP, Hsp60, or Bax (BD Bioscience Pharmingen, San Diego, Calif.). Blots were developed by enhanced chemiluminesence (ECL; Amersham, Arlington Heights, Ill.).
Previous studies have established that Bax induces mitochondrial apoptotic pathway. See Wei, M. C., Zong, W. X., Cheng, E. H., Lindsten, T., Panoutsakopoulou, V., Ross, A. J., Roth, K. A., MacGregor, G. R., Thompson, C. B. & Korsmeyer, S. J. (2001) Science 292, 727-30 and Lei, K., Nimnual, A., Zong, W. X., Kennedy, N. J., Flavell, R. A., Thompson, C. […] Thus, whether MM cell apoptosis induced by the compound of formula (II) (X=Cl) correlates with alterations in Bax was evaluated. […] Blots are representatives of three independent experiments.
In general terms: In western blotting, separated proteins are transferred to a membrane and probed.

Data set [4] has as its system Chymotrypsin-like proteasome activity. Type of data set: cell-based, human. The note with it: data not shown. The source says:
(§1) Whether the compound of formula (II) or Bortezomib alters proteasome activity in normal lymphocytes and skin fibroblasts was also examined.

For data set [5], the system named is normal CCD-27sk fibroblasts. Nature of the data set: cells. Type of data set: cell-based, human.
Excerpt: as §1

The mark [6] stands for this setting: 0.25 or 0.5 mg/kg orally twice a week.

In the case of `CC12OC(=O)C1(C(O)C1C=CCCC1)NC(=O)C2CCCl` (stereo not shown) [compound of formula (II) (X=Cl)], the “inhibition of chymotrypsin-like, caspase-like and trypsin-like activities of the 20S proteasome” value in data set [1] is listed as “inhibits all three proteasome activities”. Further, in data set [2] (oral administration, mice), the oral activity result is “orally active”. Also, in data set [2] (single i.v. or oral administration, 90 minutes after administration, FIG. 2), the “Chymotrypsin-like activity of the 20S proteasome in WBC lysates” value is recorded as “inhibits chymotrypsin-like activity of 20S proteasomes in white blood cells in a dose-dependent manner”. The “labeling of β-5 subunit by AdaY(125I)Ahx3L3VS” value in data set [3] (30 mins to 6 h, FIG. 3) is recorded as “markedly less labeled”. Also, in data set [3] (6 h, data not shown), the “labeling of β-2 and β-1 subunits by AdaY(125I)Ahx3L3VS” value was “decreased the labeling of the β-2 subunits (tryptic-activity) and the β-1 subunits (caspase-like activity)”. In addition, the VEGF-induced migration entry in the data set on MM.1S MM cells was “decreases VEGF-induced migration”. Also, in the data set with RPMI 8226 MM cells (setting [6]), the MM tumor growth entry is “significantly inhibits MM tumor growth” and the survival result is “prolongs survival”. In the data set on RPMI 8226 MM cells (after 12 weeks of treatment, oral), the neurological behavioral changes entry is given as “no neurological behavioral changes were observed”. The “treated mice with no recurrence of tumor” value in the data set on RPMI 8226 MM cells (day 300, oral, FIG. 10C) was found to be 57%. Moreover, the tumor progression result in the data set with RPMI 8226 MM cells (i.v. twice weekly (compound 0.15 mg/kg; Bortezomib 1.0 mg/kg), p<0.01) is recorded as “significantly reduced the tumor progression”. In addition, the survival entry in the data set with RPMI 8226 MM cells (i.v. twice weekly (compound 0.15 mg/kg; Bortezomib 1.0 mg/kg), p=0.0137) is “prolonged survival”. Also, the “tolerability and body weight” value with RPMI 8226 MM cells (oral 0.25 or 0.5 mg/kg, FIG. 10D) was “well tolerated by mice, without evidence of weight loss”. Further, the “treated mice with complete regression of tumors” value in the data set on RPMI 8226 MM cells (oral, twice a week) came out at 70%. Besides, the “histologic analysis of the inoculation sites” value with RPMI 8226 MM cells (versus vehicle, FIG. 10E) is listed as “disappearance of plasma cells”. For the same molecule, in the data set on Bax, the “Bax levels in mitochondria” value was “little, if any increase in Bax levels in mitochondria”. The “inhibition of Chymotrypsin-like proteasome activity” value in data set [4] (20 nM) was determined as 99%. In data set [4] (treatment at the IC50), the “proteasome activity in CCD-27sk fibroblasts” value is on record as “inhibited proteasome activity”. In addition, the IC50 in data set [5] was 0.317 µM.

Usually IC50 stands for the concentration that gives 50% inhibition. A low value points to higher potency.
